Results taken from PMC12152883, “Bile acids inhibit equilibrative adenosine transport to alter adenosine receptor signaling in cholestasis” (The Journal of Biological Chemistry, 2025).

Key:
ENT1 = biological target: T1, ENT1 (Homo sapiens, UniProt Q99808); test: Radiolabeled BA transport in ENT1 mRNA-injected Xenopus oocytes; assay type: cell-based; settings: 3H-labelled BA, Na+-containing buffer, pH 7.4
T1 construct: The complete ORF of ENT1 (amplified using forward primer); expressed in transfected cells; host or cells: Xenopus laevis oocytes injected with in vitro-transcribed capped mRNA from pOX-hENT1
T1 sequence (Q99808 1-456): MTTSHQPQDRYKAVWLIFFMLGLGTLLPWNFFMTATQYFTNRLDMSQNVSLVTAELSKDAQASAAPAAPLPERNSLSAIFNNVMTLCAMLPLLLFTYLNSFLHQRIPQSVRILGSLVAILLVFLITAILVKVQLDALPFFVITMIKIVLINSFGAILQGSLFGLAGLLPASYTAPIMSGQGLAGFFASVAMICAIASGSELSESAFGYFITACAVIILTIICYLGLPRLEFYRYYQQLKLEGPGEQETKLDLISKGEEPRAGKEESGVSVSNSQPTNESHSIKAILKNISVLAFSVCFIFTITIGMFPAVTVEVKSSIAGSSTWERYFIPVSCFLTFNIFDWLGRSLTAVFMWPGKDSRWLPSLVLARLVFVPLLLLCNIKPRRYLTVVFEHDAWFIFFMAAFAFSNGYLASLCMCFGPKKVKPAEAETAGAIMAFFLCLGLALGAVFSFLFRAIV
Method: We used a Xenopus oocyte-based transport assay that was previously used to examine BA transport by plasma membrane–directed ENT3 with a truncated N-terminus (that harbors lysosomal targeting motif) to experimentally verify whether ENT2 is capable of translocating BAs across the cell membrane ([24]). We tested both ENT1 and ENT2 along with CNT2, a purine nucleoside-specific concentrative transporter, to investigate their capacities to transport radiolabeled BAs. […] Transport was measured at pH 7.4, which is the closest pH to the pH of the extracellular fluid in which cells are exposed to solutes such as BAs to conduct plasma membrane transport ([29]).
The generated pOX expression constructs were linearized with either the Not1 or Sac1 restriction enzymes. The digested products were purified via phenol‒chloroform extraction. The mRNAs were synthesized using mMESSAGE mMACHINE (Ambion) transcription kits according to the manufacturer’s instructions. The mRNAs were purified via lithium precipitation. Oocytes were procured from Ecocyte. Prior to experiments, procured oocytes were defolliculated by treating with collagenase A-OR II solution followed by washing with Barth’s solution. Following microscopic verification, selected oocytes were incubated to recover overnight at 25 °C in a shaker incubator. Fifty nanoliters (400–800 ng/μl) of equal amounts of mRNAs were injected into defolliculated oocytes the next day. Expression of plasmids was analyzed after RNA isolation from oocyte extracts and conducting qPCR analysis with gene-specific primers as described earlier ([30]). The injected oocytes were incubated at 15 °C for 24 h before transport assays were performed. The uptake of radiolabeled substrates was measured after a 30 min incubation in transport buffer (100 mM NaCl, 2 mM KCl, 1 mM CaCl2, 1 mM MgCl2, and 10 mM Hepes, pH 7.4) at room temperature. […] Individual oocytes were shaken overnight in 10% SDS for complete dissolution, and then the radioactivity was quantified with a Beckman liquid scintillation counter. […]

HepG2 cell line = test: 3H-nucleoside uptake inhibition by BAs in HepG2 cell line; assay type: cell-based; settings: BA 100 μM; for % Inhibition of Ado uptake, HepG2 cell line, Sodium buffer / % Inhibition of Ado uptake, HepG2 cell line, Sodium-free buffer: 3H-Ado 0.02 μM; for extent of inhibition of guanosine transport, HepG2 cells: 3H-guanosine 0.02 μM, Na+-free
Excerpt: In the presence of multiple substrates with similar affinities, the abundant substrate molecules can compete for binding to the transport sites, reducing the transport of the limiting substrate molecules ([31]). […] We tested the possibility of BA-mediated nucleoside transport inhibition using a HeLa cell line (expressing ENTs (ENT1, ENT2) ([32])) and a HepG2 cell line (expressing both ENTs (ENT1, ENT2) and CNTs (CNT1, CNT2) ([33])) to conduct Ado uptake inhibition assays in Na^+-containing (where both ENTs and CNTs are capable of transport) and Na^+-free (only ENTs are capable of transport) buffers (Fig. 3 and Table 1).
The bars represent the mean ± SD (n = 3). A representative experiment from 3 to 5 independent experiments is presented. Statistical analysis was performed using one-way ANOVA with Dunnett’s multiple comparisons test; ∗p < 0.032, ∗∗p < 0.0021, ∗∗∗p < 0.0002.
HeLa (CCL-2) and HepG2 (HB_8065) were procured from ATCC. Both cell lines were cultured in Eagle's minimum essential medium and Dulbecco's modified Eagle's medium, respectively, supplemented with 10% fetal bovine serum and penicillin-streptomycin (1X). After cells were tested free for mycoplasma contamination, they were plated in 24-well plates, and transport assays were conducted when the cells were 80% confluent. The cells were briefly rinsed with PBS, and then the uptake of radiolabeled substrates was measured after a 5 min incubation in sodium containing (130 mM NaCl, 20 mM Tris–HCl, 3 mM K2HPO4, 1 mM MgCl2.6H2O, 2 mM CaCl2, 5 mM glucose, pH 7.4) or sodium-free (130 mM N-methyl-D-glucamin, 20 mM Tris–HCl, 3 mM K2HPO4, 1 mM MgCl2.6H2O, 2 mM CaCl2, 5 mM glucose, pH 7.4) transport buffers at 37 °C. Uptake was terminated by washing the cells three times with ice-cold arrest buffer containing 20 mM uridine. The cells were shaken for 30 min in 10% SDS for complete dissolution, after which the radioactivity was quantified with a Beckman liquid scintillation counter. The data are presented as the mean ± SD (n = 3).

Row | Compound | transport of BA by ENT1 (ENT1) | % Inhibition of Ado uptake, HepG2 cell line, Sodium buffer (HepG2 cell line) | % Inhibition of Ado uptake, HepG2 cell line, Sodium-free buffer (HepG2 cell line) [%] | extent of inhibition of guanosine transport, HepG2 cells (HepG2 cell line) [%]
1 | C[C@H](CCC(=O)O)[C@H]1CC[C@H]2[C@@H]3CC[C@@H]4C[C@H](O)CC[C@]4(C)[C@H]3C[C@H](O)[C@]12C [DCA, deoxycholic acid] | incapable of transporting | n.s. | 49.36 ± 0.02 | 12
2 | C[C@H](CCC(=O)NCCS(=O)(=O)O)[C@H]1CC[C@H]2[C@@H]3[C@H](O)C[C@@H]4C[C@H](O)CC[C@]4(C)[C@H]3C[C@H](O)[C@]12C [TCA, taurocholic acid] | incapable of transporting | n.s. | 62.36 ± 0.03 | 17.5
3 | C[C@H](CCC(=O)O)[C@H]1CC[C@H]2[C@@H]3[C@H](O)C[C@@H]4C[C@H](O)CC[C@]4(C)[C@H]3C[C@H](O)[C@]12C [CA, cholic acid] | incapable of transporting | n.s. | 59.86 ± 0.19 | 12
